According to publication PMC10644971 (Bioconjugate chemistry, 2023):

Experiments:
[1] = ref Erazo-Oliveras et al., Nat Methods 2014, 11, 861-867; cited from earlier work
[2] = ref Erazo-Oliveras et al., Cell Chem Biol 2016, 23, 598-607; cited from earlier work
[3] = target: 3 (disulfide-linked dimer of fTAT-ST) (HIV); experiment: covalent SnoopTag/SnoopCatcher ligation followed by SDS-PAGE (in-gel fluorescence, Coomassie) and MALDI-TOF mass spectrometry; SC (40 μM) reacted with 2 (10 μM), or SC (80 μM) with 3 (10 μM), for 1 hour in TBS (20 mM Tris, 150 mM NaCl, pH 7.4); covalent isopeptide bond; products purified by cation exchange chromatography
dfTAT-ST (2) (HIV) = experiment: as above

In the case of “CK(TMR)RKKRRQRRR [fTAT, reference compound]”, the “endosomal escape of the monomeric form” value [1] is listed as “does not mediate detectable endosomal escape” and the “leakage of liposomes mimicking the lipid composition of late endosomes” value [2] is listed as “does not cause leakage”.
Substance SnoopCatcher (SC) (designed binder) has a stoichiometry N [3] of 2 copies and a stoichiometry N (dfTAT-ST (2) (HIV)) of 1 copies.
